Legend:
Assay in all cases: relative viability (nuclei count vs DMSO), 5 days (fraction); higher = more cells survive
[1] = compound: CC1CC(=O)N(C2=CN=C(N=C2N1C3CCCC3)NC4=C(C=C(C=C4)C(=O)NC5CCN(CC5)C)OC)C [NPK76-II-72-1] + CC(=O)Nc1cccc(-n2c(=O)n(C3CC3)c(=O)c3c(Nc4ccc(I)cc4F)n(C)c(=O)c(C)c32)c1 [Trametinib] (partner 0.02 µM)
In short: (§1)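 Relative viability was taken as the ratio of nuclei in treated wells to nuclei in vehicle wells. Lung cancer cell lines in 1536-well plates received compounds by pin tool one day after seeding, either one drug alone or a fixed anchor-drug dose plus five library-drug doses (not always all listed) in √10 steps. Nuclei were counted on 4× images after 5 days of treatment, and values are medians of duplicate plates.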

[2] = compound: CC1CC(=O)N(C2=CN=C(N=C2N1C3CCCC3)NC4=C(C=C(C=C4)C(=O)NC5CCN(CC5)C)OC)C [NPK76-II-72-1] + CCNC(=O)c1noc(-c2cc(C(C)C)c(O)cc2O)c1-c1ccc(CN2CCOCC2)cc1 [Luminespib] (partner 0.01 µM)
In short: as §1

BI-2536 + Pictilisib = compound: CC[C@@H]1C(=O)N(C)c2cnc(Nc3ccc(C(=O)NC4CCN(C)CC4)cc3OC)nc2N1C1CCCC1 [BI-2536] + CS(=O)(=O)N1CCN(Cc2cc3nc(-c4cccc5[nH]ncc45)nc(N4CCOCC4)c3s2)CC1 [Pictilisib] (partner 1 µM)
In short: as §1

BI-2536 + Olaparib = compound: CC[C@@H]1C(=O)N(C)c2cnc(Nc3ccc(C(=O)NC4CCN(C)CC4)cc3OC)nc2N1C1CCCC1 [BI-2536] + O=C(c1cc(Cc2n[nH]c(=O)c3ccccc23)ccc1F)N1CCN(C(=O)C2CC2)CC1 [Olaparib] (partner 8 µM)
In short: as §1

Row | Cell Line | relative viability ([1]; first compound 0.01 µM) | relative viability ([1]; first compound 0.03162 µM) | relative viability ([1]; first compound 0.1 µM) | relative viability ([1]; first compound 0.3162 µM) | relative viability ([1]; first compound 1 µM) | relative viability ([2]; first compound 0.01 µM) | relative viability ([2]; first compound 0.03162 µM) | relative viability ([2]; first compound 0.1 µM) | relative viability ([2]; first compound 0.3162 µM) | relative viability ([2]; first compound 1 µM) | relative viability (BI-2536 + Pictilisib; first compound 0.01 µM) | relative viability (BI-2536 + Pictilisib; first compound 0.03162 µM) | relative viability (BI-2536 + Pictilisib; first compound 0.1 µM) | relative viability (BI-2536 + Pictilisib; first compound 0.3162 µM) | relative viability (BI-2536 + Pictilisib; first compound 1 µM) | relative viability (BI-2536 + Olaparib; first compound 0.01 µM) | relative viability (BI-2536 + Olaparib; first compound 0.03162 µM) | relative viability (BI-2536 + Olaparib; first compound 0.1 µM) | relative viability (BI-2536 + Olaparib; first compound 0.3162 µM) | relative viability (BI-2536 + Olaparib; first compound 1 µM)
1 | NCI-H2170 | 0.884 | 0.934 | 0.93 | 0.654 | 0.892 | 0.63 | 0.403 | 0.586 | 0.548 | 0.61 | 0.342 | 0.295 | 0.192 | 0.184 | 0.168 | 0.597 | 0.525 | 0.39 | 0.164 | 0.145
2 | NCI-H2228 | 0.348 | 0.63 | 0.538 | 0.285 | 0.571 | 0.177 | 0.143 | 0.174 | 0.133 | 0.166 | 0.39 | 0.374 | 0.218 | 0.13 | 0.165 | 0.596 | 0.553 | 0.141 | 0.118 | 0.123
3 | NCI-H2347 | 0.353 | 0.283 | 0.296 | 0.302 | 0.26 | 0.529 | 0.593 | 0.459 | 0.526 | 0.437 | 0.471 | 0.523 | 0.596 | 0.463 | 0.32 | 0.537 | 0.501 | 0.531 | 0.471 | 0.405
4 | NCI-H2405 | 0.662 | 0.618 | 0.601 | 0.59 | 0.702 | 0.625 | 0.688 | 0.773 | 0.771 | 0.93 | 0.369 | 0.391 | 0.265 | 0.0965 | 0.201 | 0.855 | 0.547 | 0.325 | 0.281 | 0.416
5 | NCI-H3122 | 0.186 | 0.216 | 0.242 | 0.261 | 0.236 | 0.095 | 0.101 | 0.113 | 0.0814 | 0.079 | 0.55 | 0.555 | 0.153 | 0.23 | 0.201 | 0.621 | 0.595 | 0.276 | 0.131 | 0.146
6 | PC-3 [JPC-3] | 0.701 |  | 0.705 | 0.737 | 0.703 | 0.622 | 0.705 | 0.638 | 0.713 | 0.728 | 0.682 | 0.769 | 0.441 | 0.268 | 0.291 | 1.22 | 0.896 | 0.582 | 0.327 | 0.369
7 | PC-14 | 0.741 | 0.848 | 0.698 | 0.678 | 0.798 | 0.133 | 0.125 | 0.239 | 0.132 | 0.164 | 0.688 | 0.563 | 0.156 | 0.0423 | 0.0236 | 0.258 | 0.155 | 0.0592 | 0.0538 | 0.0392
8 | RERF-LC-KJ | 0.874 | 0.854 | 0.838 | 0.809 | 0.946 | 1.33 | 1.41 | 1.3 | 1.21 | 1.33 | 0.565 | 0.48 | 0.249 | 0.145 | 0.206 | 0.901 | 0.571 | 0.24 | 0.201 | 0.223
9 | SK-LU-1 | 0.454 | 0.508 | 0.526 | 0.437 | 0.473 | 0.181 | 0.206 | 0.213 | 0.196 | 0.209 | 0.499 | 0.62 | 0.42 | 0.201 | 0.157 | 0.418 | 0.503 | 0.302 | 0.179 | 0.167
10 | SK-MES-1 | 0.543 | 0.583 | 0.489 | 0.593 | 0.555 | 0.827 | 0.79 | 0.646 | 0.688 | 0.857 | 0.357 | 0.374 | 0.304 | 0.157 | 0.127 | 0.72 | 0.656 | 0.199 | 0.165 | 0.177
11 | SW 1573 | 0.471 | 0.511 | 0.633 | 0.483 | 0.658 | 0.333 | 0.218 | 0.278 | 0.383 | 0.21 | 0.477 | 0.479 | 0.263 | 0.142 | 0.118 | 0.446 | 0.266 | 0.12 | 0.1 | 0.0718

Source: the supplement of paper PMC10307832
